In patent publication EP1961762A1, “Inhibitors of protein phosphatase 1/GADD34, preparation and uses thereof” (Institut Gustave Roussy, priority 2007, dated 2008):
Peptide text beside a SMILES is read from it. * marks the point of attachment. Cbz = O=C(OCc1ccccc1)*; CH2F = FC*

Columns and labels:
CT26 tumour cells = experiment: Anti-tumour vaccination with dying treated CT26 tumour cells, challenge with live tumour cells; type: in vivo, BALB/c mice; conditions: for immunogenic cell death: PP1/GADD34 inhibitor alone
CRT = experiment: Fluorescence detection of cell surface CRT on CT26 cells; type: cell-based, murine
Description: CT26 cells were cultured at 37°C under 5% CO2 in RPMI 1640 medium supplemented with 10% FCS, penicillin, streptomycin, 1 mM pyruvate and 10 mM HEPES in the presence of doxorubicin (DX; 24 h, 25 µM), mitoxantrone (Mitox; 24h, 1 µM, Sigma), idarubicin (24h, 1 µM, Aventis, France), mitomycin C (30 µM, 48 h; Sanofi-Synthelabo, France), and/or zVAD-fmk (50 µM, 24 h; Bachem), tunicamycin (24h, 65 µM), thapsigargin (24h, 30µM), brefeldin A (24h, 50 µM, Sigma), etoposide (48h, 25µM, Tava classics), MG132 (48h, 10 µM), ALLN (48h, […]), betulinic acid (24h, 10 µM), Hoechst 33343 (24h, 0,2µM), camptothecine (24h, 15 µM), lactacystin (48h, 60 µM), BAY 11-8072 (24h, 30µM), staurosporine (24h, 1.5 µM), bafilomycin A1 (48h, 300 nM), arsenic trioxide (24h, 30µM), C2-ceramide (C2-C; 24h, 60 µM,), calyculin A (48h, 30nM), or tautomycin (48h, nM, Sigma) and/or salubrinal (48h, µM, Calbiochem).
CT26 cells (on a glass slide or in 12-well plates) were first washed with FACS buffer (1× PBS, 5% fetus bovine serum, and 0.1% sodium azide) and then incubated with rabbit anti-mouse CRT antibody (1:100, Stressgen) in FACS buffer at 4 °C for 30 min. Cells reacted with anti-rabbit IgG (H+L) Alexa fluor 488-conjugates (1:500) in FACS buffer at 4 °C for 30 min. After washing three times with FACS buffer, surface CRT was detected by cytofluorometric analysis on a FACS Vantage. In some experiments, cells were fixed with 4% paraformaldehyde, counterstained with Hoechst (2µM; Sigma), followed by fluorescence microscopic assessment with a Leica IRE2 microscope equipped with a DC300F camera.

CRT and/or ERp57 = experiment: Immunofluorescence staining of unfixed human tumour cell lines; type: cell-based; conditions: variety of human tumour cell lines
CT26 tumours [1] = experiment: Intratumoural treatment of established CT26 tumours, nu/nu mice; conditions: single intratumoural injection
Description: (§1) All animals were maintained in specific pathogen-free conditions and all experiments followed the FELASA guidelines. […] Tumours were evaluated weekly, using a caliper. In a series of experiments, BALB/c (wild type or nu/nu) carrying palpable CT26 tumours (implanted 14 days before for wild type or 7 days before for nu/nu mice by injection of 10^6 tumour cells) received a single intratumoural injection of 100 µM PBS containing the same concentration of anti-cancer agents and PP1/GADD34 inhibitors as those used in vitro, as well as rCRT (15 µg).

CT26 tumours [2] = experiment: Intratumoural treatment of established CT26 tumours, immunocompetent mice; conditions: for therapeutic effect of single agent: single intratumoural injection, 14-day-old tumours
Description: as §1

MCA205, B16F10, J558 = experiment: CRT exposure on murine tumour cell lines; type: cell-based
HeLa, A549, HCT116 = experiment: CRT exposure on human tumour cell lines; type: cell-based
[3] = tested on: human HCT116 colon cancer cell; experiment: Calreticulin exposure, immunofluorescence staining and cytofluorometric analysis; type: cell-based; conditions: 2 hours
[4] = tested on: murine CT26 colon cancer cells; experiment: as above; type: cell-based; conditions: 2 hours
Description: CT26 cells were cultured for 24 hours in the presence of the indicated agents for 24hrs, as described in Materials and Methods, and then were stained with Annexin V-FITC and the vital dye DAPI. • Fig. 1B: Identification of immunogenic cell death inducers. CT26 cells cultured as in Fig.1A were injected into the left flank, followed by injection of life tumour cells in the right flank 8 days later. The percentage of tumour free mice was determined 120 days later as in Fig.1C. • Fig. 1C: Incidence of tumours after inoculation of dying cells. Day 1 was considered the day of inoculation of dying tumour cells, 1 week before challenge with […]. • Fig. 1S. Dissociation of CRT exposure and phosphatidyl serine exposure. • Fig. 1SA, Fig. 1SB: Kinetics of CRT exposure. […] Representative pictograms are shown in Fig.1SA and quantitative data are reported in Fig.1SB. • Fig. 1SC, Fig. 1SD: Kinetics of PS exposure and cell death. […] Note that the nuclei of untreated cells were visualized with Hoechst 33342 (blue), while those of doxorubicin-treated cells emit a red fluorescence (Fig.2D). […] The surface exposure of CRT was determined by immunoflurorescence cytometry while gating on viable (propidium iodine-negative) cells (inserts) and was correlated with the immunogenicity of cell death (as determined in Fig. 1). […]

[5] = dying CT26 cells treated with the agent injected into one flank, live tumour cells into the opposite flank 8 days later

CCOc1ccc(-c2nc3ccc(-c4nc5ccc(N6CCN(C)CC6)cc5[nH]4)cc3[nH]2)cc1 [Hoechst 33342]
immunogenic apoptosis / immunogenic cell death (protection against tumour growth) (CT26 tumour cells; [5]): failed to induce immunogenic apoptosis

COC(=O)C[C@H](NC(=O)[C@H](C)NC(=O)[C@@H](NC(=O)OCc1ccccc1)C(C)C)C(=O)CF [Z-VAD-fmk] (Cbz-Val-Ala-Asp(OMe)-CH2F)
immunogenicity of doxorubicin-elicited cell death (CT26 tumour cells; Z-VAD-fmk combined with doxorubicin): reduces the immunogenicity

C[C@H]1CCC/C=C/[C@@H]2C[C@H](O)C[C@H]2[C@H](O)/C=C/C(=O)O1 [brefeldin, brefeldin A]
immunogenic apoptosis / immunogenic cell death (protection against tumour growth) (CT26 tumour cells; [5]): failed to induce immunogenic apoptosis

COC[C@@H]([C@H](O)[C@H](O)C(=O)NCC[C@H](C)c1nc(/C=C/C[C@@H]2O[C@]3(C[C@@H](O)[C@@H]2C)O[C@H]([C@H](C[C@H](O)[C@H](C)[C@H](O)[C@H](C)/C=C(C)/C(C)=C/C=C/C(C)=C\C#N)OC)[C@H](OP(=O)(O)O)C3(C)C)co1)N(C)C [calyculin A]
CRT exposure (CRT; agent alone): efficiently induced
CRT exposure (CRT; in combination with etoposide): greatly enhanced
immunogenic cell death (CT26 tumour cells): not sufficient to induce immunogenic cell death
immunogenic potential of cells succumbing to etoposide (CT26 tumour cells; mouse, in vivo): greatly enhanced

CC[C@@]1(O)C(=O)OCc2c1cc1n(c2=O)Cc2cc3ccccc3nc2-1 [camptothecin]
immunogenic apoptosis / immunogenic cell death (protection against tumour growth) (CT26 tumour cells; [5]): failed to induce immunogenic apoptosis

COc1cccc2c1C(=O)c1c(O)c3c(c(O)c1C2=O)C[C@@](O)(C(C)=O)C[C@@H]3O[C@H]1C[C@H](N)[C@H](O)[C@H](C)O1 [daunorubicin]
exposure of CRT and/or ERp57 on the cell surface (CRT and/or ERp57): Very similar results

COc1cc([C@@H]2c3cc4c(cc3[C@@H](O[C@@H]3O[C@@H]5CO[C@@H](C)O[C@H]5[C@H](O)[C@H]3O)[C@H]3COC(=O)[C@H]23)OCO4)cc(OC)c1O [etoposide]
immunogenic apoptosis / immunogenic cell death (protection against tumour growth) (CT26 tumour cells; [5]): failed to induce immunogenic apoptosis
immunogenicity of etoposide-treated cells (CT26 tumour cells; sham-coated cells): poorly immunogenic
therapeutic effect of single agent (CT26 tumours [1]): no major therapeutic effect
therapeutic effect of single agent (CT26 tumours [2]): no major therapeutic effect

CC(=O)[C@]1(O)Cc2c(O)c3c(c(O)c2[C@@H](O[C@H]2C[C@H](N)[C@H](O)[C@H](C)O2)C1)C(=O)c1ccccc1C3=O [idarubicin]
immunogenic apoptosis / immunogenic cell death (protection against tumour growth) (CT26 tumour cells; [5]): elicited immunogenic cell death
exposure of CRT and/or ERp57 on the cell surface (CRT and/or ERp57): Very similar results

C/C1=C/C(=O)O[C@@H]2C[C@@H](CC[C@H](C)/C=C\C=C\CC1)O[C@@](O)([C@@H]1CSC(=O)N1)C2 [latrunculin A]
effect on CRT exposure induced by anthracyclins and PP1/GADD34 inhibitors (CRT; pre-incubation for 1 h with the inhibitor): abolished

CO[C@@]12[C@H](COC(N)=O)C3=C(C(=O)C(C)=C(N)C3=O)N1C[C@@H]1N[C@@H]12 [mitomycin C]
immunogenic apoptosis / immunogenic cell death (protection against tumour growth) (CT26 tumour cells; mouse, in vivo): failed to induce immunogenic apoptosis
therapeutic effect of single agent (CT26 tumours [1]): no major therapeutic effect
therapeutic effect of single agent (CT26 tumours [2]): no major therapeutic effect

O=C(/C=C/c1ccccc1)NC(NC(=S)Nc1cccc2cccnc12)C(Cl)(Cl)Cl (stereo not shown) [salubrinal]
CRT exposure (MCA205, B16F10, J558): induced CRT exposure
CRT exposure (HeLa, A549, HCT116): induced CRT exposure
CRT exposure (CRT; agent alone): efficiently induced
CRT exposure (CRT; in combination with etoposide): greatly enhanced
immunogenic cell death (CT26 tumour cells): not sufficient to induce immunogenic cell death
immunogenic potential of cells succumbing to etoposide (CT26 tumour cells; in combination with etoposide (mitomycin C not shown), abrogated by knocking down CRT): greatly enhanced
therapeutic effect of single agent (CT26 tumours [1]): no major therapeutic effect
tumour response (CT26 tumours [2]; combined with etoposide or mitomycin C, intratumoural): stable disease or complete tumour regression
therapeutic effect of single agent (CT26 tumours [2]): no major therapeutic effect

C/C=C(/C)C(=O)O[C@H]1C(C)=C2[C@H]([C@@H]1OC(=O)CCCCCCC)[C@@](C)(OC(C)=O)C[C@H](OC(=O)CCC)[C@@]1(O)[C@H]2OC(=O)[C@@]1(C)O [thapsigargin]
immunogenic apoptosis / immunogenic cell death (protection against tumour growth) (CT26 tumour cells; [5]): failed to induce immunogenic apoptosis

C2-ceramide [C2 ceramide]
immunogenic apoptosis / immunogenic cell death (protection against tumour growth) (CT26 tumour cells; [5]): failed to induce immunogenic apoptosis

VKKKKIKREIKI-Ikaravafsekv [mutant control peptide]
exposure of calreticulin [3]: did not induce calreticulin exposure
exposure of calreticulin [4]: did not induce calreticulin exposure

arsenic trioxide [arsenite]
immunogenic apoptosis / immunogenic cell death (protection against tumour growth) (CT26 tumour cells; mouse, in vivo): failed to induce immunogenic apoptosis

tunicamycin
immunogenic apoptosis / immunogenic cell death (protection against tumour growth) (CT26 tumour cells; [5]): failed to induce immunogenic apoptosis
